Experimental data taken from EP3426036B1, “CROP ENHANCEMENT” (priority 2016, dated 2017).

Assays:
[1] = tested on: bread wheat (Triticum aestivum L.) and durum wheat (Triticum durum Desf.); experiment: Further wheat field trials under controlled and natural drought stress (Example 1e); format: in vivo; conditions: for average grain yield increase compared to untreated check / mean TGW increase versus untreated check: multitrial analysis; for average grain yield increase compared to untreated check: all 26 disease-free modalities, 30 or 75 g ha^-1; for mean TGW increase versus untreated check: controlled and natural drought stress, 20 modalities; for grain yield increase compared to untreated check: only trials under controlled drought stress conditions
Excerpt: Wheat field trials were designed as randomized complete blocks with six replicates. Sowing, fertilization and general crop maintenance were done in accordance to locally accepted best practice. Crop protection maintenance products were applied preventatively only if required across all trial area (check and experimental plots and boundary areas) including locally registered seed treatment products, herbicides and insecticides. In case of potential disease attack, DMI and/or contact fungicides were applied preventatively. Application of fungicides from Qo inhibitors (strobilurines) and SDHI groups were not allowed to avoid possible interaction with compound I experimental treatments. Any products with plant growth regulator effects were excluded as well. Pesticides were applied not less than three to four days before or after experimental applications of compound I.
Following assessments were taken: general phytotoxicity at 7 and 14 days after application, general pest damage ratings before harvest, grain yield adjusted to 10% standard moisture (calculation based on fresh grain weight and grain moisture at harvest), thousand grain weight (TGW) adjusted to 10% standard moisture.
Entire plots or only central treated areas were harvested manually using cutters with stationary threshers (trials located in Argentina, Egypt and India) or with small-plot combine-harvesters (trials located in France, Italy and USA).
Single trial statistical analysis of variance (ANOVA) was done with Agstat 1.6 / ACSAP 4.29. Multi-trial analysis was based on paired t-test with comparison of compound I experimental treatments versus untreated checks and was done with TIBCO® Spotfire® 7.0.1.
To minimize risk of environmental impacts from rain on drought stress period and level, all proposed locations were validated through internal Environment and Crop Modelling process. This modelling allowed to calculate the potential drought stress intensity through estimation of climatic cumulative water deficit (sum of all daily water deficit during reproductive stage of wheat development). Daily water deficit was calculated as difference between daily precipitation and daily evapotranspiration by wheat plants. Thirty-eight candidate locations were proposed as suitable for drought stress trials. We performed field trials at fifteen locations from which we present results from the eleven disease-free trials that originated from seven locations: Egypt (Kaha), Italy (Foggia), India (Dongargaon, Mandleshwar and Sanwer) and USA (Woodland, CA; Jerome, ID).
Each field trial had two adjacent blocks: well-watered (WW) block with untreated check plots used for stress level estimation and grain yield reference and water-stressed (WS) block with experimental treatments including untreated check plots. Plot size varied between trials from 8.45 m^2 (Woodland, US) up to 30 m^2 (Kaha, EG) and harvested plot size was from 8.45 m^2 (Woodland, US) up to 20.7 m^2 (India). Seven locally adapted drought sensitive commercial varieties of spring and winter bread wheat (Triticum aestivum L.) and durum wheat (Triticum durum Desf.) were tested: var. Massimo Meridio (Foggia, IT), var. Saha 94 and Sods 12 (Kaha, EG), var. GW322 and GW366 (India), var. Alturas (Jerome, US) and var. Summit 515 (Woodland, US).
To manage drought stress, three types of water irrigation systems were used: precise drip irrigation (Kaha, EG; Foggia, IT; Woodland, US), solid-set sprinkler irrigation (Jerome, US) and flood irrigation (all sites in India). Plants in WW blocks were well irrigated from sowing till harvest to compensate 100% of evapotranspiration demand, targeting the optimum yield achievable in the trial area. Plants in WS blocks were irrigated from planting till the beginning of pre-stress period exactly at the same level of water supply as in WW conditions. […]

[2] = tested on: detached wheat (Triticum aestivum var. Arina) leaves; experiment: Detached leaf transpiration and photosynthesis analysis; format: in vivo, Triticum aestivum L.
Method: Winter wheat (Triticum aestivum L.) of the variety Arina was used for the detached leaf transpiration assay. Plants were grown under optimum conditions in growth chambers until BBCH 12. The seedlings were dark-adapted for one hour; the second leaf was cut under water and directly placed into a 1.5 mL test-tube filled with 1 mL of compound I solution. The solution was prepared by dissolving compound I in dimethyl sulfoxide (DMSO) and diluting in water to the final concentrations of 3, 10, 50 and 100 mg L^-1. After weighing the initial weight of the leaf-tube-system, the leaves were placed in growth chambers at 25°C, 60% relative humidity and a light intensity of 150 µmol m^-2 s^-1 at 14 hours photoperiod. Transpiration was quantified by measuring the weight of the leaf-tube-system after 6 and 24 hours. Tubes without leaves solely filled with water were used to correct for evaporation. At 6 hours, the operating quantum efficiency of photosystem II (φPSII), which is a proxy of the photosynthetic activity, was monitored under growth conditions from the middle of the leaf using a PAM-2500 fluorometer (Walz, Effeltrich, Germany). The experimental design was a randomized complete block design with five replications for each treatment; one experimental unit was one leaf per test-tube. Statistical analysis (ANOVA) was done with Agstat 1.6 / ACSAP 4.29.

Spring wheat = experiment: Crop enhancement effect on wheat under drought conditions in the field (Example 1d); format: in vivo; conditions: non-irrigated; for Grain Yield / TGW: adjusted to 10% standard moisture; for No. of grains per ear: average of 20 ears per plot
Method: Spring wheat (plot size 30m^2) was treated with a single application at BBCH GS 41 (early boot stage) or 49 (first awns visible) with the compound of formula I at a rate of 75.0 g a.i/ha. […] This water supply condition was maintained during the reproductive stages of plant growth (BBCH 55-89). The trial was carried out with six replicates. At the end of the trial, a 20m^2 plot was harvested from each of five replicates. […]

[3] = 75.0 g a.i/ha applied at BBCH 41
[4] = 75.0 g a.i/ha applied at BBCH 49

Compound: Cn1cc(C(=O)Nc2cccc3c2C2CCC3C2=C(Cl)Cl)c(C(F)F)n1 (stereo not shown) [Compound I, benzovindiflupyr]
- general phytotoxicity ([1]; EC 100 at 30 or 75 g ha^-1, BBCH 39 to 55, all trials, 7 and 14 days after application): did not cause any phytotoxic effects
- average grain yield increase with 75 g ha^-1 compared to the rate of 30 g ha^-1 ([1]; controlled drought stress conditions): +0.23 dt ha^-1
- average grain yield increase compared to untreated check [1]: +5.2%
- average grain yield increase compared to untreated check ([1]; 95% CI +1.45 to +3.21 dt ha^-1): +2.33 dt ha^-1
- mean TGW increase versus untreated check [1]: +1.9%
- mean TGW increase versus untreated check ([1]; 95 % CI [+0.23, +1.13] g 1000 seeds^-1): 0.68 g 1000 seeds^-1
- grain yield increase compared to untreated check [1]: +6.0%
- grain yield increase compared to untreated check ([1]; 95% CI [+1.69, +4.03] dt ha^-1): +2.86 dt ha^-1
- TGW compared to untreated check ([1]; single trial ANOVA, p ≤ 0.05): did not detect any significant effect
- grain yield adjusted to 10% standard moisture compared to untreated check ([1]; single trial ANOVA, p ≤ 0.05): did not detect any significant effect
- leaf transpiration ([2]; 3, 10, 50 and 100 mg L^-1, 0 to 24 hours): significantly decreased leaf transpiration in a dose-dependent manner
- leaf transpiration ([2]; 3 and 10 mg L^-1, first 6 hours): decreased only little
- leaf transpiration ([2]; 50 and 100 mg L^-1, within 6 hours of treatment): clearly visible
- operating quantum efficiency of photosystem II (φPSII) ([2]; at 6 hours, 3 to 100 mg L^-1): did not show an impact
- Hectolitre weight (Spring wheat; [3]): 85.68 kg/Hl
- Grain Yield (Spring wheat; [3]): 48.00 dT/Ha
- TGW (Spring wheat; [3]): 41.56 g
- No. of grains per ear (Spring wheat; [3]): 50.80
- Hectolitre weight (Spring wheat; [4]): 84.96 kg/Hl
- Grain Yield (Spring wheat; [4]): 42.30 dT/Ha
- TGW (Spring wheat; [4]): 41.46 g
- No. of grains per ear (Spring wheat; [4]): 46.70
